According to PMC10721786, “Development of a potent benzonitrile-based inhibitor of glutaminyl-peptide cyclotransferase-like protein (QPCTL) with antitumor efficacy” (Signal Transduction and Targeted Therapy, 2023):

Key:
[1] = tested on: CD47; experiment: Overall cell surface CD47 (hCD47-B6H12 binding) in HEK293T and Raji cells; type: cell-based, human; conditions: 100 nM, 48 h
Procedure: (§1) Binding to cell surface CD47 was assessed by staining cells with fluorochrome-labeled antibodies clone CC2C6 (BioLegend, Cat. # 323102) and B6H12 (Abcam, Cat. # ab134485) to human CD47 at a dilution of 1:100 in PBS containing 1% FBS (FACS buffer) for 30 min on ice, while protected from light. SIRPα binding to CD47 was assessed by incubating cells with PE labeled recombinant human SIRPα/ CD172α Protein, Fc tag (ACRO Biosystems, Cat. # SIA-HP252) or PE labeled mouse SIRPα Protein, His tag (ACRO Biosystems, Cat. # SIA-MP2H6) for 1 hour on ice, while protected from light.

[2] = tested on: CD47/SIRPα; experiment: Cell surface binding of human or mouse SIRPα protein to tumor cells (Raji, B16F10), flow cytometry; type: cell-based
Procedure: as §1

[3] = tested on: Raji and B16F10 cells; experiment: Cell viability (CCK-8) in Raji and B16F10 cells; type: cell-based; conditions: Fig. S5
Procedure: Raji cells (5000 cells/well), B16F10 cells (3000 cells/well) and BMDM (10000 cells/well) were plated in 96-well and cell viability was examined at the time points shown in the figures, with the help of Cell Counting Kit 8 (CCK-8) (Share-bio, Cat. # B-CCK8) according to the manufacturer’s recommendations.

[4] = In vivo toxicity in mice (blood routine, serum biochemistry, HE histology); set-up: species or system mouse
Procedure: Briefly, male mice were implanted subcutaneously with 5 x 10^5 B16F10 cells resuspended in 100 μL of DMEM on Day 0. Anti-PD-1 antibody or mouse IgG2a isotype control was dosed at 80 µg per mouse intraperitoneally starting on day 6 after tumor implantation, followed by a once-a-week regimen. QPCTL inhibitors was intraperitoneally administered at 25 mg/kg once a day since day 6. Tumors were measured every three days, and mice were sacrificed on day 15. Mouse organs and blood were collected for blood routine, blood serum biochemistry examination and histological evaluation.
Blood routine and blood serum biochemistry examination of mice. Whole blood was collected in EDTA anticoagulant tubes for blood routine test and heparin sodium tubes for blood serum biochemistry examination. Tubes were gently inverted several times to thoroughly mix the blood and anticoagulant. The routine blood test was tested by Automatic Hematology Analyzer (TEK8500H4-0502, TECOM SCIENCE, China). Blood serum was obtained by centrifugation at 4℃ at 4000 rpm for 10 minutes. Serum creatinine (CR) was determined by CR kit (PUREBIO, Cat. # CR01), urea nitrogen (BUN) was determined by BUN kit (PUREBIO, Cat. # URE01), alanine aminotransferase (ALT) was determined by ALT kit (PUREBIO, Cat. # ALT01) and […] was determined by AST kit (PUREBIO, Cat. # AST01) according to the manufacturer’s instructions. […]

[5] = tested on: B16F10 cells; experiment: In vitro phagocytosis of B16F10 cells by mouse macrophages; type: cell-based
Procedure: Eight-week-old C57BL/6 wild-type mice were obtained from Shanghai Slaccas Laboratory Animal Co., Ltd.. To obtain bone marrow derived macrophage (BMDM), femora and tibiae were flushed with ice-cold PBS, and erythrocytes were lysed with RBC lysis buffer. Then bone marrow cells were cultured in DMEM medium with 10 % FBS and 100 U/ mL penicillin, and 100 μg/ mL streptomycin in the presence of 50 ng/ mL mouse M-CSF (Macrophage-Colony Stimulating Factor) (PeproTech), 0.1 mM Sodium pyruvate (Gibco, Cat. # 11360-70) and 10 mM HEPES (Gibco, Cat. # 15630-080) for 7 days.
Phagocytosis assay were conducted as previously described. Briefly, macrophages were plated 1 x 10^5 cells per well in a 48-well plate in complete DMEM medium, supplemented with M-CSF overnight before the experiment. Cancer cells were stained with 5 μM CFSE at 37 °C for 10 min. Each phagocytotic reaction reported in this work was performed by co-culture of target cells and macrophages for 4 hours at 37 °C. Macrophages were identified with APC-labeled anti-F4/80 (Biolegend, Cat. # 123116), and flow cytometry (BD FACSCanto II, San Jose, CA) was performed. Phagocytosis was calculated as the percentage of CFSE^+F4/80^+ cells (Q2) among CFSE^+ cells (Q2+Q3): phagocytosis (%) = [Q2 / (Q2+ Q3)] x100 %.

[6] = tested on: pGlu-CD47; experiment: Flow cytometry of pGlu-CD47 (hCD47-CC2C6 binding) in Raji cells; type: cell-based, human; conditions: 100 nM, 48 h
Procedure: as §1

[7] = tested on: pGlu-CD47; experiment: Flow cytometry of pGlu-CD47 (hCD47-CC2C6 binding) in HEK293T cells; type: cell-based, human
Procedure: as §1

[8] = tested on: pGlu-CD47; experiment: hCD47-CC2C6 binding to various cancer cells (H929, HCT116, Huh7, SKOV3, SU-DHL-8, T24, H1299, MCF-7); type: cell-based, human; conditions: 500 nM, 48 h
Procedure: as §1

Cn1cncc1C1CCN(c2c(C#N)cccc2-c2ccc(F)nc2)CC1 [QP5038]
overall cell surface levels of CD47 [1]: did not alter
binding of human or mouse SIRPα protein to cell surface [2]: significantly reduced
cell viability [3]: did not markedly impair
organ damage (HE staining) ([4]; C57B/L6 mice, 25 mg/kg daily for 15 days, Fig. S10): would not cause
abnormal blood composition ([4]; mice, 25 mg/kg daily, Fig. S11): would not cause
phagocytosis of B16F10 cells ([5]; 10 μM inhibitor 48 h, in combination with TA99, mouse macrophages): significantly boosted
flow cytometry quadrant Q1 ([5]; 48 h, 10 µM): 34.7
flow cytometry quadrant Q2 (CFSE+F4/80+ cells) ([5]; 48 h, 10 µM): 5.39
flow cytometry quadrant Q3 ([5]; 48 h, 10 µM): 59.0
flow cytometry quadrant Q4 ([5]; 48 h, 10 µM): 0.89
efficiency on phagocytosis compared with SEN177 and PQ912 ([5]; B16F10 and Raji cells, 10 μM 48 h, Fig. 1h–k, Fig. S6): much better than that of SEN177 and PQ912
inhibitory effect on CD47 pyroglutamation compared to SEN177 and PQ912 [6]: superior inhibitory effects
inhibitory effect on CD47 pyroglutamation compared to SEN177 and PQ912 ([7]; 100 nM, 48 h): superior inhibitory effects
IC50 ([7]; Homo sapiens, HEK-293T, treatment 48 h, read-out: IC50, dose-dependent inhibition of pGlu-CD47): 3.3 ± 0.5 nM
CD47 pyroglutamation in various types of cancer cells [8]: significantly attenuated
